Consider ten molecules from patent publication US20210261527A1, “OGA INHIBITOR COMPOUNDS” (Janssen Pharmaceutica NV, priority 2018, published 2021).

Where a name gives a salt, the structure may show the parent alone.

Series [1] has as its target T1, recombinant human Meningioma Expressed Antigen 5 (MGEA5), also referred to as O-GlcNAcase (OGA) (Homo sapiens, UniProt O60502).
T1 construct: Full length OGA enzyme was purchased at OnGene (cat #TP322411); purchased OnGene (so in the source)
T1 sequence (O60502 1-916): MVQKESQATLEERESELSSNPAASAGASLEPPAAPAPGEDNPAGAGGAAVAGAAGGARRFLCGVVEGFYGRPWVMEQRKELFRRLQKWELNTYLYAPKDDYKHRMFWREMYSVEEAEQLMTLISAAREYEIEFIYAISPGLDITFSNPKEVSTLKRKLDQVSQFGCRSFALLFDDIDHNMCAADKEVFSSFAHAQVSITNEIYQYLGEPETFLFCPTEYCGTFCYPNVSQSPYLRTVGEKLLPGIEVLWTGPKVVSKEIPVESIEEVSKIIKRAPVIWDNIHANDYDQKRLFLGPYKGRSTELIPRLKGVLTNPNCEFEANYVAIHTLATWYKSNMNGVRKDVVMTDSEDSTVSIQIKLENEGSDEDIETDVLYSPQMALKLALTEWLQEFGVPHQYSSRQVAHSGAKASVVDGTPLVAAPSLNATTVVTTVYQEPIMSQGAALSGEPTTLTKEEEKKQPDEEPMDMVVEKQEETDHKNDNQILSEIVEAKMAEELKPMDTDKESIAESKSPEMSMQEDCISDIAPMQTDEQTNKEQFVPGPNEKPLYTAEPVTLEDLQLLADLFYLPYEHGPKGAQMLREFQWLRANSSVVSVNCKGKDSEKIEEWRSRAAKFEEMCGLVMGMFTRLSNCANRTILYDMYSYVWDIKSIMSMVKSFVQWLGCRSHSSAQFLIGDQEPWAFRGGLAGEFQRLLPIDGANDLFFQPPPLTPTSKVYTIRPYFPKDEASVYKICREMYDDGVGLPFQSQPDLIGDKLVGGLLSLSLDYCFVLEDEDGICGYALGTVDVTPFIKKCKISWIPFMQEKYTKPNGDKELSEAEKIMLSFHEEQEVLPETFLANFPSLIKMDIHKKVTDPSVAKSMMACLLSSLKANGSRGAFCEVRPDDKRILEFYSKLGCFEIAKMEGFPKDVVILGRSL
Briefly: OGA biochemical assay (FM-GlcNAc hydrolysis, fluorescence). Particulars: full length OGA 2 nM, FM-GlcNAc 100 uM, pH 7.2, 6 h at room temperature; for Emax: read-out: Enzymatic Emax (%); for IC50: read-out: Enzymatic hOGA, pIC50 (converted). The text has this:
The assay is based on the inhibition of the hydrolysis of fluorescein mono-β-D-N-Acetyl-Glucosamine (FM-GlcNAc) (Mariappa et al. 2015, Biochem J 470:255) by the recombinant human Meningioma Expressed Antigen 5 (MGEA5), also referred to as O-GlcNAcase (OGA). The hydrolysis FM-GlcNAc (Marker Gene technologies, cat #M1485) results in the formation of β-D-N-glucosamineacetate and fluorescein. The fluorescence of the latter can be measured at excitation wavelength 485 nm and emission wavelength 538 nm. An increase in enzyme activity results in an increase in fluorescence signal. Full length OGA enzyme was purchased at OnGene (cat #TP322411). The enzyme was stored in 25 mM Tris.HCl, pH 7.3, 100 mM glycine, 10% glycerol at −20° C. Thiamet G and GlcNAcStatin were tested as reference compounds (Yuzwa et al. 2008 Nature Chemical Biology 4:483; Yuzwa et al. 2012 Nature Chemical Biology 8:393). The assay was performed in 200 mM Citrate/phosphate buffer supplemented with 0.005% Tween-20. 35.6 g Na2HPO4 2 H2O (Sigma, #C0759) were dissolved in 1 L water to obtain a 200 mM solution. 19.2 g citric acid (Merck, #1.06580) was dissolved in 1 L water to obtain a 100 mM solution. pH of the sodiumphosphate solution was adjusted with the citric acid solution to 7.2. The buffer to stop the reaction consists of a 500 mM Carbonate buffer, pH 11.0. 734 mg FM-GlcNAc were dissolved in 5.48 mL DMSO to obtain a 250 mM solution and was stored at −20° C. OGA was used at a 2 nM concentration and FM-GlcNAc at a 100 uM final concentration. Dilutions were prepared in assay buffer.
50 nl of a compound dissolved in DMSO was dispensed on Black Proxiplate™ 384 Plus Assay plates (Perkin Elmer, #6008269) and 3 μl fl-OGA enzyme mix added subsequently. Plates were pre-incubated for 60 min at room temperature and then 2 μl FM-GlcNAc substrate mix added. […] Plates were briefly centrifuged for 1 min at 1000 rpm and incubate at room temperature for 6 h. To stop the reaction 5 μl STOP buffer were added and plates centrifuge again 1 min at 1000 rpm. Fluorescence was quantified in the Thermo Scientific Fluoroskan Ascent or the PerkinElmer EnVision with excitation wavelength 485 nm and emission wavelength 538 nm.
For analysis a best-fit curve is fitted by a minimum sum of squares method. From this an IC50 value and Hill coefficient was obtained. High control (no inhibitor) and low control (saturating concentrations of standard inhibitor) were used to define the minimum and maximum values.

Series [2] addresses T2, hOGA in HEK293 cells inducible for P301L mutant human Tau (isoform 2N4R) (Homo sapiens, UniProt O60502).
T2 construct: endogenous in cells; host or cells: HEK293 cells inducible for P301L mutant human Tau (isoform 2N4R)
T2 sequence (O60502 1-916): T1 sequence (O60502 1-916)
In words: OGA cellular assay (ICC detection of O-GlcNAcylated proteins). Particulars: 6 hours incubation; for Emax: maximum = Thiamet G at 200 uM; for EC50: O-GlcNAcylation intensity readout at 488 nm, read-out: Cellular hOGA, pEC50 (converted). Format: cell-based. The protocol: HEK293 cells inducible for P301L mutant human Tau (isoform 2N4R) were established at Janssen. Thiamet-G was used for both plate validation (high control) and as reference compound (reference EC50 assay validation). OGA inhibition is evaluated through the immunocytochemical (ICC) detection of O-GlcNAcylated proteins by the use of a monoclonal antibody (CTD110.6; Cell Signaling, #9875) detecting 0-GlcNAcylated residues as previously described (Dorfmueller et al. 2010 Chemistry & biology, 17:1250). Inhibition of OGA will result in an increase of O-GlcNAcylated protein levels resulting in an increased signal in the experiment. Cell nuclei are stained with Hoechst to give a cell culture quality control and a rough estimate of immediate compounds toxicity, if any. ICC pictures are imaged with a Perkin Elmer Opera Phenix plate microscope and quantified with the provided software Perkin Elmer Harmony 4.1.
Cells were propagated in DMEM high Glucose (Sigma, #D5796) following standard procedures. 2 days before the cell assay cells are split, counted and seeded in Poly-D-Lysine (PDL) coated 96-wells (Greiner, #655946) plate at a cell density of 12,000 cells per cm^2 (4,000 cells per well) in 100 μl of Assay Medium (Low Glucose medium is used to reduce basal levels of GlcNAcylation) (Park et al. 2014 The Journal of biological chemistry 289:13519). At the day of compound test medium from assay plates was removed and replenished with 90 μl of fresh Assay Medium. 10 μl of compounds at a 10fold final concentration were added to the wells. Plates were centrifuged shortly before incubation in the cell incubator for 6 hours. DMSO concentration was set to 0.2%. Medium is discarded by applying vacuum. For staining of cells medium was removed and cells washed once with 100 μl D-PBS (Sigma, #D8537). From next step onwards unless other stated assay volume was always 50 μl and incubation was performed without agitation and at room temperature. Cells were fixed in 50 μl of a 4% paraformaldehyde (PFA, Alpha aesar, #043368) PBS solution for 15 minutes at room temperature. […] Before analysis samples were washed 2 times manually for 5 minutes in ICC base buffer.
Imaging is performed using Perkin Elmer Phenix Opera using a water 20× objective and recording 9 fields per well. Intensity readout at 488 nm is used as a measure of O-GlcNAcylation level of total proteins in wells. To assess potential toxicity of compounds nuclei were counted using the Hoechst staining. IC50-values are calculated using parametric non-linear regression model fitting. As a maximum inhibition Thiamet G at a 200 uM concentration is present on each plate. In addition, a concentration response of Thiamet G is calculated on each plate.

Turning to `Cc1cc(C[C@H]2CCCN(C(C)c3ccc4cccnc4c3)C2)cc(C)n1` (mixture of isomers) (as salt: HCl) [Compound 9], the melting point (commonly the temperature of the solid-liquid transition) worked out at 262.69 °C.
With `Cc1cc(C[C@H]2CCCN(C(C)c3cc4ncccc4cn3)C2)cc(C)n1` (mixture of isomers) [Compound 6], in series [1], the Emax (as a rule, the maximal effect, on the per cent scale that the assay sets) was found to be 99.6% and the IC50 was 47.9 nM. The molecule also registered a maximum response (Emax) in series [2] of 41.1%.
Regarding `Cc1cc(C[C@H]2CCCN(C(C)c3ccc4cccnc4n3)C2)cc(C)n1` (mixture of isomers) [Compound 7], in series [1], the Emax came out at 101% and the IC50 was 14.8 nM. Moreover, in series [2], the EC50 is 234 nM and the Emax amounted to 71.1%.
For `Cc1cc(C[C@H]2CCCN(C(C)c3ccc4nc(O)cnc4c3)C2)cc(C)n1` (mixture of isomers) [Compound 10], in series [1], the maximal effect (Emax) worked out at 101% and the IC50 is 107 nM. In series [2], the EC50 is over 1000 nM and the maximal response (Emax) is 11.2%.
Turning to `Cc1cc(C[C@H]2CCCN([C@@H](C)c3ccc4ccc(C)nc4c3)C2)cc(C)n1` (single isomer, unassigned) [Compound 2], in series [1], the Emax was 60.8% and the IC50 was 7240 nM.
As for `Cc1cc(C[C@H]2CCCN([C@H](C)c3ccc4ccc(C)nc4c3)C2)cc(C)n1` (single isomer, unassigned) [Compound 3], in series [1], the Emax was 101% and the IC50 is 53.7 nM. In series [2], the EC50 is over 1000 nM and the Emax was 34.8%.
In the same order, the values of `Cc1cc(C[C@H]2CCCN([C@@H](C)c3cnc4cccnc4c3)C2)cc(C)n1` (single isomer, unassigned) [Compound 4] are 102%, 28.8 nM, 646 nM and 50.5%.
With `Cc1cc(C[C@H]2CCCN([C@H](C)c3cnc4cccnc4c3)C2)cc(C)n1` (single isomer, unassigned) [Compound 5], in series [1], the Emax was determined as 103% and the IC50 was 5.5 nM. Moreover, in series [2], the EC50 is 162 nM and the maximal response (Emax) was determined as 86.4%.
On to `Cc1cc(C[C@H]2CCCN(Cc3ccc4cccnc4c3)C2)cc(C)n1` [Compound 1], for which the melting point was found to be 152.83 °C. Moreover, in series [1], the Emax worked out at 95.8% and the IC50 was 288 nM. Moreover, in series [2], the EC50 was over 1000 nM and the Emax was 33%.
As for `Cc1cc(C[C@H]2CCCN(Cc3ccc4cccnc4n3)C2)cc(C)n1` [Compound 8], in series [1], the Emax was 98.5% and the IC50 was 195 nM. In series [2], the EC50 is over 1000 nM and the maximal effect (Emax) worked out at 29.8%.
